# Columns and labels:
# human recombinant FXa = biological target: T1, human recombinant FXa (Homo sapiens, UniProt P00742); assay: FXa inhibitory activity assay (chromogenic substrate, 405 nm); format: biochemical; settings: inhibitory activity on FXa, preincubated at 37° C. for 10 mins
# T1 construct: purchased Calbiochem; host or cells: human plasma
# Method: Experimental principle and method: FXa cuts the Arg carboxyl end in the substrate N-Z-D-Arg-Gly-Arg-pDA in vitro and releases p-nitrophenylamine which has specific absorption at 405 nm wavelength. The amount of the […] generated is determined at 405 nm to evaluate the activity of the compound to inhibit the human recombinant FXa in vitro.
# Human plasma coagulation factor Xa was purchased from Calbiochem; the substrate N-Z-D-Arg-Gly-Arg-pDA was purchased from chromogenic. The subject compound, enzyme and the reaction buffer were mixed and preincubated at 37° C. for 10 mins. The substrate was added. The absorption at 405 nm wavelength was measured continuously over 20 mins. At the same time, a blank control group (without enzyme, 100% inhibition rate) and a negative control group (replace the subject compound with DMSO, 0% inhibition rate) were set up. The reaction system was 100 μl (50 μl of Tris buffer, 10 μl of compound, 20 μl (0.027 U/ml) of enzyme, 20 μl (300 μM) of substrate). Each concentration of each sample was assayed in triplicate. The experiment was carried out for 2 times independently.
# in vivo = assay: in vivo
# Method: Healthy male SD rats, body weight 200-220 g, randomly divided into 6 groups with each group 3-4 rats, were administered with the subject compound via intragastric administration and intravenous injection, respectively.
# The subject compound was prepared with 5% DMSO/5% Twain 80/90% saline into solution for administration.
# The rats were fasted for 12 hrs before experiment, free water-drinking, and were all fed 2 h after administration. Blood sampling time and sample treatment:
# intragastric administration: 0.25, 0.5, 1.0, 2.0, 3.0, 4.0, 6.0, 8.0, and 24 h after administration;
# intravenous administration: 5 min, 0.25, 0.5, 1.0, 2.0, 4.0, 6.0, 8.0, and 24 h after administration.
# At the time points defined above, 0.3 ml of venous blood was taken from the posterior venous plexus of rats to heparinized tubes, centrifuged at 11000 rpm for 5 mins to separate the plasma, which was then frozen at −20° C. in a refrigerator.
# [1] = system: rabbit sodium citrate anticoagulant plasma; assay: In vitro anticoagulant activity: prothrombin time (PT); format: biochemical; settings: compound concentration that prolonged the PT time by 1 time vs blank control
# Method: The experiment used […]-1 immunomagnetic single channel semi-automated blood coagulation analyzer to measure blood coagulation time. Principle: An excessive amount of tissue thromboplastin (infusion of preparations such as human brain, rabbit brain, placenta, and lung tissue) and calcium ion are added to the plasma to be tested, thereby converting prothrombin into thrombin, and the latter converts fibrinogen into fibrin. The time needed for plasma coagulation is observed as prothrombin time. This experiment is the most commonly used screening test for the evaluation of an extrinsic coagulation system. Test method: To the rabbit sodium citrate anticoagulant plasma (3.8% sodium citrate, 1:9 mixture) were added various concentrations of the compounds to be tested. PT reagents ([…], Beijing) were used to measure the prothrombin activation time. The compound concentration that prolonged the PT time by 1 time, when compared with the blank control, was recorded as PT2, thereby evaluating the anticoagulant activity of the compounds. Rabbit sodium citrate anticoagulant plasma (3.8% sodium citrate plasma, 1:9 mixture) was purchased from Guangzhou Ruite Bio company; […]-1 immunomagnetic single channel semi-automated blood coagulation analyzer and […] blood coagulation 3-item reagents were purchased from Beijing […] instrument company. […] Each concentration of each sample was assayed in 3-6 duplicate wells, and the experiment was independently carried out for 2-3 times.
# [2] = system: rabbit sodium citrate anticoagulant plasma; assay: In vitro anticoagulant activity: activated partial thromboplastin time (APTT); format: biochemical; settings: compound concentration that prolonged the APTT time by 1 time vs blank control
# Method: The experiment used […]-1 immunomagnetic single channel semi-automated blood coagulation analyzer to measure blood coagulation time. Principle: At 37° C., using Kaolin to activate factors □ and □; using cephalin (partial thromboplastin) to replace platelet factor 3; and in the presence of Ca^2+, the time needed for the coagulation of plasma which lacks of platelet is observed as activated partial thromboplastin time. This experiment is a screening test which is sensitive and commonly used for the endogenous blood coagulation system. Test method: To the rabbit sodium citrate anticoagulant plasma (3.8% sodium citrate, 1:9 mixture) were added various concentrations of the compounds to be tested. APTT reagents ([…], Beijing) were used to measure the […] activation time. The compound concentration that prolonged the APTT time by 1 time, when compared with the blank control, was recorded as APTT2, thereby evaluating the anticoagulant activity of the compounds. Rabbit sodium citrate anticoagulant plasma (3.8% sodium citrate plasma, 1:9 mixture) was purchased from Guangzhou Ruite Bio company; […]-1 immunomagnetic single channel semi-automated blood coagulation analyzer and […] blood coagulation 3-item reagents were purchased from Beijing […] instrument company. […] Each concentration of each sample was assayed in 3-6 duplicate wells, and the experiment was independently carried out for 2-3 times.
# thrombus formation = assay: In vivo anticoagulant activity: electrically induced carotid artery thrombus formation time; set-up: species or system rat; settings: for ED50: Rattus norvegicus, po, male SD rats, intragastric administration, 3 mA electrical stimulation of left common carotid artery 1 h after administration, read-out: ED50 for prolonging the thrombus formation time
# Method: The rats were fasted for 12 h, then weighted, and treated by intragastric administration. After 45 min, the rats were anesthetized with chloral hydrate (350 mg/kg), immobilized, and the left common carotid artery was exposed by surgery. The artery and the surrounding tissue were separated by plastic wrap. Electrical stimulation was started 1 h after intragastric administration. The stimulation electrode of the BT87-4 tester for experimental in vivo thrombus formation was placed at the end of the blood vessels proximal to the heart. 3 mA current was used for a 2 min of stimulation. The instrument started the timer automatically when the stimulation began. The stimulation switch was turned off when the stimulation ended. The stimulation electrode was removed, and a thermostat probe was placed at the end of the artery on the stimulation site, which end is distal to the heart. At the time of 600 seconds, the pointer of the thermostat panel was slowly moved to the position of 0. The time from the start of simulation to the alarm of the instrument was recorded as the time of blood vessel blockage (or the time of thrombus formation). If a drug has antithrombosis effect, the time of thrombus formation (time of blood vessel blockage) will be prolonged. IBM SPSS Statistics 20 software was used for the t test of the experimental data.
# [3] = male, SD, rat, in vivo, iv, 3 mg/kg
# [4] = male, SD, rat, in vivo, po, 10 mg/kg
# [5] = male, SD, rat, in vivo, iv, 4.5 mg/kg
# [6] = male, SD, rat, in vivo, po, 9 mg/kg
# T1 sequence (P00742 235-488 limits assumed): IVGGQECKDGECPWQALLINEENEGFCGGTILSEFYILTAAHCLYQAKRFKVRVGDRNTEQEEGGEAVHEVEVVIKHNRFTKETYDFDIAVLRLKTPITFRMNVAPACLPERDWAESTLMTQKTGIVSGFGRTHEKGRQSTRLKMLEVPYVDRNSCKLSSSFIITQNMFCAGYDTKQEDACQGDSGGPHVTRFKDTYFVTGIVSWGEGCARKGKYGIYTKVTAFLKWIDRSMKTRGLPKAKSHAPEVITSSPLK
# T1 sequence (P00742 41-179 partner limits assumed): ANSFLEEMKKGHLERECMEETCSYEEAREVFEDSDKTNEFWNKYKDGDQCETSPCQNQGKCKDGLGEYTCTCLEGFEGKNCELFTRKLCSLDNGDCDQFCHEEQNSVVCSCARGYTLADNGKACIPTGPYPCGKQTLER
smiles,measurement,setting,value
"O=C(NC[C@@H]1OC(=O)N2c3ccc(N4CCOCC4=O)cc3OC[C@@H]12)c1ccc(Cl)s1 [Compound 1, 5-chloro-N-(((3S,3aS)-1-oxo-7-(3-oxomorpholin-4-yl)-1,3,3a,4-tetrahydrobenzo[b]oxazolo[3,4-d][1,4]oxazin-3-yl)methyl)thiophene-2-carboxamide]",IC50,human recombinant FXa,2.25 ± 0.01 nM
same,F,"in vivo; male, SD, rat, in vivo",63.7%
same,CLz,in vivo; [3],3.35 mL/min/kg
same,MRT,in vivo; [3],1.03 h
same,T1/2,in vivo; [3],1.00 h
same,Vss,in vivo; [3],0.201 L/kg
same,Cmax,in vivo; [4],11901 ng/mL
same,MRT,in vivo; [4],2.23 h
same,T1/2,in vivo; [4],1.33 h
same,Tmax,in vivo; [4],0.75 h
same,AUC0-t,"in vivo; rat, in vivo, iv, 3 mg/kg",15324 ngh/mL
same,AUC0-∞,"in vivo; rat, in vivo, iv, 3 mg/kg",15339 ngh/mL
same,AUC0-t,"in vivo; rat, in vivo, po, 10 mg/kg",32529 ngh/mL
same,AUC0-∞,"in vivo; rat, in vivo, po, 10 mg/kg",33044 ngh/mL
same,PT2,[1],0.184 µM
same,APTT2,[2],0.141 µM
same,ED50,thrombus formation,2.97 mg/kg
same,activity relative to rivaroxaban,"thrombus formation; ratio of ED50s for prolonging thrombus formation time, rats",1.53 times
"O=C(NC[C@@H]1OC(=O)N2c3ccc(N4CCCCC4=O)cc3OC[C@@H]12)c1ccc(Cl)s1 [Compound 2, 5-chloro-N-(((3S,3aS)-1-oxo-7-(2-oxopiperidin-1-yl)-1,3,3a,4-tetrahydrobenzo[b]oxazolo[3,4-d][1,4]oxazin-3-yl)methyl)thiophene-2-carboxamide]",F,"in vivo; male, SD, rat, in vivo",42.0%
same,CLz,in vivo; [5],2.28 mL/min/kg
same,MRT,in vivo; [5],3.04 h
same,Vss,in vivo; [5],0.406 L/kg
same,Cmax,in vivo; [6],6927 ng/mL
same,MRT,in vivo; [6],3.4 h
same,Tmax,in vivo; [6],0.67 h
same,AUC0-t,"in vivo; rat, in vivo, iv, 4.5 mg/kg",31057 ngh/mL
same,AUC0-∞,"in vivo; rat, in vivo, iv, 4.5 mg/kg",33562 ngh/mL
same,AUC0-t,"in vivo; rat, in vivo, po, 9 mg/kg",26119 ngh/mL
same,AUC0-∞,"in vivo; rat, in vivo, po, 9 mg/kg",28527 ngh/mL
same,T1/2,"in vivo; rats, intravenous injection (4.5 mg/Kg)",1.95 h
same,T1/2,"in vivo; rats, oral administration (9 mg/Kg)",2.10 h
same,PT2,[1],1.06 µM
same,APTT2,[2],0.932 µM
"O=C(NC[C@@H]1OC(=O)N2c3ccc(N4CCOCC4=O)cc3OC[C@@H]12)c1ccc(Cl)cc1 [Compound 17, 4-chloro-N-(((3S,3aS)-1-oxo-7-(3-oxomorpholin-4-yl)-1,3,3a,4-tetrahydrobenzo[b]oxazolo[3,4-d][1,4]oxazin-3-yl)methyl)benzamide]",IC50,human recombinant FXa,12.2 ± 10.5 nM
"O=C(NC[C@@H]1OC(=O)N2c3ccc(N4CC[C@@H](F)CC4=O)cc3OC[C@@H]12)c1ccc(Cl)s1 [Compound 33, 5-chloro-N-(((3S,3aS)-7-((R)-4-fluro-2-oxopiperidin-1-yl)-1-oxo-1,3,3a,4-tetrahydrobenzo[b]oxazolo[3,4-d][1,4]oxazin-3-yl)methyl)-thiophene-2-carboxamide]",IC50,human recombinant FXa,15 ± 1.6 nM
"O=C(NC[C@@H]1OC(=O)N2c3ccc(N4CC[C@H](F)CC4=O)cc3OC[C@@H]12)c1ccc(Cl)s1 [Compound 34, 5-chloro-N-(((3S,3aS)-7-((S)-4-fluro-2-oxopiperidin-1-yl)-1-oxo-1,3,3a,4-tetrahydrobenzo[b]oxazolo[3,4-d][1,4]oxazin-3-yl)methyl)-thiophene-2-carboxamide]",IC50,human recombinant FXa,19.3 ± 3.39 nM
"NS(=O)(=O)c1ccccc1-c1ccc2c(c1)OC[C@H]1[C@H](CNC(=O)c3ccc(Cl)s3)OC(=O)N21 [Compound 35, 5-chloro-N-(((3S,3aS)-1-oxo-7-(2-aminosulfonylphenyl)-1,3,3a,4-tetrahydrobenzo[b]oxazolo[3,4-d][1,4]oxazin-3-yl)methyl)thiophene-2-carboxamide]",IC50,human recombinant FXa,19.6 ± 16.9 nM
"CS(=O)(=O)c1ccccc1-c1ccc2c(c1)OC[C@H]1[C@H](CNC(=O)c3ccc(Cl)s3)OC(=O)N21 [Compound 36, 5-chloro-N-(((3S,3aS)-7-(2-(methylsulfonyl)phenyl)-1-oxo-1,3,3a,4-tetrahydrobenzo[b]oxazolo[3,4-d][1,4]oxazin-3-yl)methyl)thiophene-2-carboxamide]",IC50,human recombinant FXa,12.2 ± 4.08 nM
"O=C(NC[C@H]1CN(c2ccc(N3CCOCC3=O)cc2)C(=O)O1)c1ccc(Cl)s1 [rivaroxaban, reference compound]",F,"in vivo; male, SD, rat, in vivo",4.6%
same,CLz,in vivo; [3],4.75 mL/min/kg
same,MRT,in vivo; [3],0.88 h
same,Vd,in vivo; [3],0.25 L/kg
same,half-life,in vivo; [3],0.98 h
same,Cmax,in vivo; [4],440 ng/mL
same,MRT,in vivo; [4],7.01 h
same,Tmax,in vivo; [4],0.56 h
same,half-life,in vivo; [4],4.64 h
same,AUC0-t,"in vivo; rat, in vivo, iv, 3 mg/kg",10548 ngh/mL
same,AUC0-∞,"in vivo; rat, in vivo, iv, 3 mg/kg",10575 ngh/mL
same,AUC0-t,"in vivo; rat, in vivo, po, 10 mg/kg",1608 ngh/mL
same,AUC0-∞,"in vivo; rat, in vivo, po, 10 mg/kg",2242 ngh/mL
same,PT2,[1],0.399 µM
same,APTT2,[2],0.315 µM
same,ED50,thrombus formation,4.53 mg/kg

# — patent US9382265B2, “Oxazolidone compound, preparing method and application thereof” (SHANGHAI INSTITUTE OF MATERIA MEDICA, CHINESE ACADEMY OF …, priority 2013, dated 2016)
